Test results: PubChem BioAssay (NCI)
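Five concentrations, 48 hours, 96-well plates. GI50: concentration for 50% inhibition of growth. The concentration for full growth arrest is given as TGI.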

Assays:
Assay in all cases: NCI tumour cell line growth inhibition, 48 h
HOP-92 NSCLC = tested on: HOP-92 NSCLC
EKVX NSCLC = tested on: EKVX NSCLC
MCF7 breast = tested on: MCF7 breast
T-47D breast = tested on: T-47D breast
UACC-257 melanoma = tested on: UACC-257 melanoma
786-0 renal = tested on: 786-0 renal
HCT-116 colon = tested on: HCT-116 colon
SF-295 CNS = tested on: SF-295 CNS
SK-OV-3 ovarian = tested on: SK-OV-3 ovarian
HCC-2998 colon = tested on: HCC-2998 colon
NCI/ADR-RES ovarian = tested on: NCI/ADR-RES ovarian
SF-539 CNS = tested on: SF-539 CNS
MOLT-4 leukemia = tested on: MOLT-4 leukemia
A549 NSCLC = tested on: A549 NSCLC
PC-3 prostate = tested on: PC-3 prostate
A498 renal = tested on: A498 renal
SW-620 colon = tested on: SW-620 colon
HT29 colon = tested on: HT29 colon
MDA-MB-435 = tested on: MDA-MB-435
SNB-19 CNS = tested on: SNB-19 CNS
IGROV1 ovarian = tested on: IGROV1 ovarian
OVCAR-4 ovarian = tested on: OVCAR-4 ovarian
NCI-H522 lung = tested on: NCI-H522 lung
SF-268 CNS = tested on: SF-268 CNS
NCI-H460 lung = tested on: NCI-H460 lung
KM12 colon = tested on: KM12 colon
BT-549 breast = tested on: BT-549 breast
COLO 205 colon = tested on: COLO 205 colon
ACHN renal = tested on: ACHN renal
SR leukemia = tested on: SR leukemia
TK-10 renal = tested on: TK-10 renal
HL-60(TB) leukemia = tested on: HL-60(TB) leukemia
CCRF-CEM leukemia = tested on: CCRF-CEM leukemia
SNB-75 CNS = tested on: SNB-75 CNS
DU-145 prostate = tested on: DU-145 prostate
HS 578T breast = tested on: HS 578T breast
UO-31 renal = tested on: UO-31 renal
M14 melanoma = tested on: M14 melanoma
NCI-H23 lung = tested on: NCI-H23 lung
CAKI-1 renal = tested on: CAKI-1 renal
HOP-62 NSCLC = tested on: HOP-62 NSCLC
OVCAR-8 ovarian = tested on: OVCAR-8 ovarian
SK-MEL-5 melanoma = tested on: SK-MEL-5 melanoma
NCI-H226 lung = tested on: NCI-H226 lung
SK-MEL-2 melanoma = tested on: SK-MEL-2 melanoma
RXF 393 renal = tested on: RXF 393 renal
HCT-15 colon = tested on: HCT-15 colon
OVCAR-5 ovarian = tested on: OVCAR-5 ovarian
K-562 leukemia = tested on: K-562 leukemia
SN12C renal = tested on: SN12C renal
MDA-MB-231 breast = tested on: MDA-MB-231 breast
SK-MEL-28 melanoma = tested on: SK-MEL-28 melanoma
RPMI-8226 leukemia = tested on: RPMI-8226 leukemia
UACC-62 melanoma = tested on: UACC-62 melanoma
OVCAR-3 ovarian = tested on: OVCAR-3 ovarian
U251 CNS = tested on: U251 CNS

C/C(=C\c1csc(C)n1)[C@@H]1C[C@@H]2O[C@@H]2CCC[C@H](C)[C@H](O)[C@@H](C)C(=O)C(C)(C)[C@@H](O)CC(=O)O1
TGI (HOP-92 NSCLC): 608 nM
TGI (EKVX NSCLC): 525 nM
TGI (MCF7 breast): 349 nM
TGI (T-47D breast): > 100000 nM
TGI (UACC-257 melanoma): > 100000 nM
TGI (786-0 renal): > 100000 nM
TGI (HCT-116 colon): > 100000 nM
TGI (SF-295 CNS): < 0.1 nM
TGI (SK-OV-3 ovarian): 398 nM
TGI (HCC-2998 colon): < 0.1 nM
TGI (NCI/ADR-RES ovarian): 0.598 nM
TGI (SF-539 CNS): < 0.1 nM
TGI (MOLT-4 leukemia): > 100000 nM
TGI (A549 NSCLC): > 100000 nM
TGI (PC-3 prostate): > 100000 nM
TGI (A498 renal): 333 nM
TGI (SW-620 colon): 18700 nM
TGI (HT29 colon): 0.586 nM
TGI (MDA-MB-435): < 0.1 nM
TGI (SNB-19 CNS): > 100000 nM
TGI (IGROV1 ovarian): > 100000 nM
GI50 (OVCAR-4 ovarian): 23000 nM
TGI (OVCAR-4 ovarian): > 100000 nM
TGI (NCI-H522 lung): < 0.1 nM
TGI (SF-268 CNS): > 100000 nM
TGI (NCI-H460 lung): > 100000 nM
TGI (KM12 colon): > 100000 nM
TGI (BT-549 breast): > 100000 nM
TGI (COLO 205 colon): 80.4 nM
TGI (ACHN renal): > 100000 nM
TGI (SR leukemia): 6.09 nM
TGI (TK-10 renal): > 100000 nM
TGI (HL-60(TB) leukemia): > 100000 nM
TGI (CCRF-CEM leukemia): > 100000 nM
TGI (SNB-75 CNS): < 0.1 nM
TGI (DU-145 prostate): 4.64 nM

CCCCCCCCCCCC[n+]1ccc2ccccc2c1
GI50 (HS 578T breast): 1540 nM
TGI (HS 578T breast): 3880 nM
GI50 (UO-31 renal): 1190 nM
TGI (UO-31 renal): 3230 nM
GI50 (M14 melanoma): 588 nM
TGI (M14 melanoma): 2790 nM
GI50 (HOP-92 NSCLC): 300 nM
TGI (HOP-92 NSCLC): 1790 nM
GI50 (NCI-H23 lung): 646 nM
TGI (NCI-H23 lung): 3090 nM
GI50 (EKVX NSCLC): 400 nM
TGI (EKVX NSCLC): 1770 nM
GI50 (CAKI-1 renal): 1650 nM
TGI (CAKI-1 renal): 5060 nM
GI50 (MCF7 breast): 937 nM
TGI (MCF7 breast): 2880 nM
GI50 (T-47D breast): 406 nM
TGI (T-47D breast): 5260 nM
GI50 (HOP-62 NSCLC): 1480 nM
TGI (HOP-62 NSCLC): 3010 nM
GI50 (UACC-257 melanoma): 405 nM
TGI (UACC-257 melanoma): 1820 nM
GI50 (786-0 renal): 1490 nM
TGI (786-0 renal): 2930 nM
GI50 (HCT-116 colon): 857 nM
TGI (HCT-116 colon): 2370 nM
GI50 (OVCAR-8 ovarian): 654 nM
TGI (OVCAR-8 ovarian): 2340 nM
GI50 (SF-295 CNS): 882 nM
TGI (SF-295 CNS): 2740 nM
GI50 (SK-OV-3 ovarian): 1430 nM
TGI (SK-OV-3 ovarian): 3100 nM
GI50 (SK-MEL-5 melanoma): 317 nM
TGI (SK-MEL-5 melanoma): 1280 nM
GI50 (NCI-H226 lung): 1100 nM
TGI (NCI-H226 lung): 3850 nM
GI50 (SK-MEL-2 melanoma): 1500 nM
TGI (SK-MEL-2 melanoma): 3880 nM
GI50 (HCC-2998 colon): 1070 nM
TGI (HCC-2998 colon): 2320 nM
GI50 (RXF 393 renal): 1360 nM
TGI (RXF 393 renal): 2880 nM
GI50 (NCI/ADR-RES ovarian): 9370 nM
TGI (NCI/ADR-RES ovarian): 35500 nM
GI50 (HCT-15 colon): 2600 nM
TGI (HCT-15 colon): 13800 nM
GI50 (SF-539 CNS): 1580 nM
TGI (SF-539 CNS): 3220 nM
GI50 (MOLT-4 leukemia): 681 nM
TGI (MOLT-4 leukemia): 2650 nM
GI50 (OVCAR-5 ovarian): 1340 nM
TGI (OVCAR-5 ovarian): 3740 nM
GI50 (K-562 leukemia): 247 nM
TGI (K-562 leukemia): 1960 nM
GI50 (A549 NSCLC): 1750 nM
TGI (A549 NSCLC): 3380 nM
GI50 (PC-3 prostate): 219 nM
TGI (PC-3 prostate): 1120 nM
GI50 (A498 renal): 2570 nM
TGI (A498 renal): 8760 nM
GI50 (SN12C renal): 1170 nM
TGI (SN12C renal): 2650 nM
GI50 (MDA-MB-231 breast): 1280 nM
TGI (MDA-MB-231 breast): 2850 nM
GI50 (SW-620 colon): 996 nM
TGI (SW-620 colon): 2560 nM
GI50 (HT29 colon): 419 nM
TGI (HT29 colon): 2140 nM
GI50 (SK-MEL-28 melanoma): 1470 nM
TGI (SK-MEL-28 melanoma): 3000 nM
GI50 (MDA-MB-435): 387 nM
TGI (MDA-MB-435): 1550 nM
GI50 (SNB-19 CNS): 995 nM
TGI (SNB-19 CNS): 2220 nM
GI50 (IGROV1 ovarian): 413 nM
TGI (IGROV1 ovarian): 1850 nM
GI50 (OVCAR-4 ovarian): 486 nM
TGI (OVCAR-4 ovarian): 2330 nM
GI50 (RPMI-8226 leukemia): 295 nM
TGI (RPMI-8226 leukemia): 949 nM
GI50 (NCI-H522 lung): 410 nM
TGI (NCI-H522 lung): 1880 nM
GI50 (SF-268 CNS): 1220 nM
TGI (SF-268 CNS): 2570 nM
GI50 (NCI-H460 lung): 1690 nM
TGI (NCI-H460 lung): 3270 nM
GI50 (KM12 colon): 397 nM
TGI (KM12 colon): 1510 nM
GI50 (UACC-62 melanoma): 343 nM
TGI (UACC-62 melanoma): 1630 nM
GI50 (BT-549 breast): 907 nM
TGI (BT-549 breast): 2490 nM
GI50 (COLO 205 colon): 1220 nM
TGI (COLO 205 colon): 2590 nM
GI50 (ACHN renal): 1890 nM
TGI (ACHN renal): 7560 nM
GI50 (SR leukemia): 750 nM
TGI (SR leukemia): 2570 nM
GI50 (TK-10 renal): 1170 nM
TGI (TK-10 renal): 2570 nM
GI50 (HL-60(TB) leukemia): 267 nM
TGI (HL-60(TB) leukemia): 954 nM
GI50 (CCRF-CEM leukemia): 317 nM
TGI (CCRF-CEM leukemia): 2090 nM
GI50 (OVCAR-3 ovarian): 579 nM
TGI (OVCAR-3 ovarian): 1890 nM
GI50 (U251 CNS): 348 nM
TGI (U251 CNS): 1420 nM
GI50 (SNB-75 CNS): 1140 nM
TGI (SNB-75 CNS): 2780 nM
GI50 (DU-145 prostate): 1180 nM
TGI (DU-145 prostate): 2740 nM
